Here are results for three compounds from patent US8372600B2, “Method and apparatus for measuring changes in cell volume” (priority 2004, dated 2013).

For assay [1], the system named is E. Coli strain (BL21(DE3)). Briefly: Antibiotic sensitivity of suspended bacteria: growth monitored by chamber resistance. The conditions noted are these: 50 μg/ml and 10 μg/ml, 24° C., FIG. 14. Type of assay: cell-based. How it is done:
To test the microfluidic chip performance with suspended cells, the first chamber was perfused with an E. Coli suspension. The E. Coli strain (BL21(DE3)) harbors a plasmid that confers resistance to kanamycin. The cells were tested for antibiotic sensitivity by adding varying concentrations of carbenicillin—an antibiotic to which the bacteria are susceptible. After filling the chamber with bacteria, flow was stopped and the chamber resistance monitored. […] By adding specific ligands, such as antibodies, to the walls of the measuring chamber, specific microorganisms can be purified, concentrated and assayed in a single step. Since cellular organelles are similar in size to bacteria, the present invention can also be used to study the metabolism of mitochondria, chloroplasts, and vesicles or organelles such as the ER.

Assay [2] addresses T1, P2X7 (purinergic ion channels) (Homo sapiens, UniProt Q99572).
T1 construct: expressed in transfected cells; host or cells: HEK cells
T1 sequence (Q99572 1-595): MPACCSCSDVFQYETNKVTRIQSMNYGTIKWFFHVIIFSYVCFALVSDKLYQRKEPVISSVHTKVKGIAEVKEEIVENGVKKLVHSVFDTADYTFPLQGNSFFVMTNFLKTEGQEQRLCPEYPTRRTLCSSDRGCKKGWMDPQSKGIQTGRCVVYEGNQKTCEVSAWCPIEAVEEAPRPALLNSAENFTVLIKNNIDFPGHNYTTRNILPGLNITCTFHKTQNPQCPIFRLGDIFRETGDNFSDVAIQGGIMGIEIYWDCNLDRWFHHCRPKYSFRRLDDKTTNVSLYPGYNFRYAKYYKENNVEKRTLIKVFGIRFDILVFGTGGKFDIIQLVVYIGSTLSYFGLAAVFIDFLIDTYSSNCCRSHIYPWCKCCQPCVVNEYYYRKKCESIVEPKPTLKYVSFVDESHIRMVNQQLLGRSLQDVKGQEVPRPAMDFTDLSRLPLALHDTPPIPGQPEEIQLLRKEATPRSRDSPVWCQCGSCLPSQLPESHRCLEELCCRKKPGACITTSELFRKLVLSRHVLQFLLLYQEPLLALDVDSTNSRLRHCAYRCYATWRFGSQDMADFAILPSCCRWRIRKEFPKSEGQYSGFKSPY
Briefly: Volume change of HEK cells transfected with P2X7, measured in the chamber. In kind it is cell-based. An excerpt:
The chamber is sensitive to more than toxic or anisotonic media. […] Thus, the device can serve as a coarse grained substitute for common (but slow) electrophysiologically assays.

In assay [3] the test system is GH3 cells. The conditions noted are these: previously known; cited from earlier work.
Assay [4] deals with astrocyte RVD. Briefly: Astrocyte regulatory volume decrease (RVD) under a 188 mOsm hypotonic stimulus, measured as chamber resistance in the microfluidic chip. In kind it is cell-based, rat. The conditions noted are these: 188 mOsm stimulus; for Effect on RVD: FIG. 13. An excerpt:
A microfluidic chip comprising a channel 15 μm deep and 1.5 mm wide was fabricated an connected to a fluid inlet and a fluid outlet. Along the length of the channel, there were two chambers (labeled 22 and 24 in FIGS. 1-3). Chamber 22 was configured for measuring cell volume and comprised a depth of 15 μm. Chamber 24 was deeper (55 μm) and served as a calibrating chamber for monitoring solution resistivity. Thin film platinum electrodes disposed in each chamber formed a four-point probe for measuring the chamber impedance. The chip was mounted on an acrylic platform to mate with external fluid connections. For testing adherent cells, the cells were cultured on glass coverslips and inverted on top of the chip so that the cells faced chamber 22. The coverslip was pressed against the chip with a clamp that applied a uniform force of approximately 50 N. For the electrical measurements, an active current source providing 1 μA of a 50 Hz sinusoid was applied to the two outer electrodes. Low frequency stimulation was utilized to minimize the dielectric loss in the silicon and to reduce the demands on the common mode rejection of the voltage amplifier. The voltage between the two inner electrodes was measured using a homemade instrumentation amplifier with input currents <1 pA to reduce polarization. A lock-in amplifier provided rectification and filtering.
To test the microfluidic chip performance with living cells, examination of the volume regulatory response of rat astrocytes was conducted. Solution osmolality was adjusted using mannitol, which allowed a constant ionic strength to be maintained. For the most critical tests, the solution conductivities were finely titrated to be equal at all osmotic pressures; the flow rate was constant at approximately 0.3 μl/s. FIGS. 10 and 11 show the astrocytes' response to perfusion with hypotonic and hypertonic stimuli. Hypotonic media caused a rapid (˜1 min) increase in volume followed by a slow (10 min) decrease—the well known regulatory volume decrease (RVD). RVD in astrocytes is due to the efflux of KCl and neutral organic osmolytes such as taurine. The time course and extent of RVD using 188, 220, and 273 mOsm solutions (FIG. 10) are in agreement with published data. RVD in other cell types was tested, including HEK and MDCK, and similar responses were identified. However, the RVI was only observed with mild stimuli (<345 mOsm) (FIG. 11). Similar results have been previously reported for astrocytes. The RVI under the above conditions is driven by Na^+, K^+, and Cl^− fluxes through a co-transporter.
A microfluidic chip was tested by screening peptides isolated from the tarantula Grammostola spatulata. The peptides were added to a hypotonic perfusate and their effects on astrocyte RVD were examined. […]

Take `CC1(C)S[C@@H]2[C@H](NC(=O)C(C(=O)O)c3ccccc3)C(=O)N2[C@H]1C(=O)O` (some centres unmarked) [Carbenicillin, carbenicillin]: the “Time until growth was visibly slowed” value in assay [1] was not above 15 min. Further, the “Effect on bacterial growth” value in assay [1] (concentration dependent) is “visibly slowed growth”.
As to `Nc1ncnc2c1ncn2[C@@H]1O[C@H](COP(=O)(O)OP(=O)(O)OP(=O)(O)O)[C@@H](O)[C@H]1O` [ATP], the “Cell volume response following activation” value in assay [2] is recorded as “reversible volume changes”.
Take GsMTx1: in assay [3], the “Effect on swelling-induced Ca2+ uptake” value was “block”. Further, the “Reduction of RVD” value in assay [4] (100 pM peptide in hypotonic perfusate) is given as “about 50%”. Moreover, the “Effect on RVD” value in assay [4] (1 nM peptide in hypotonic perfusate), in assay [4] (10 nM peptide in hypotonic perfusate) and in assay [4] (1 μM peptide in hypotonic perfusate) was “completely blocked” throughout.
